How the values were obtained:
Hepatitis C virus = experiment: Antiviral activity against Hepatitis C virus infected in human HuH7 cells assessed as inhibition of HCV subgenomic replicon replication after 72 hrs by ELISA; assay type: functional, organism-based, Hepacivirus hominis, Huh-7; settings: Hepatitis C virus, Huh-7, 72 h; read-out: EC50
[1] = Inhibition of Hepatitis C virus full-length NS3/4A protease assessed as quenched-fluorogenic RET-S1 substrate cleavage incubated for 10 mins prior to substrate addition by FRET analysis; parameters: species or system Hepacivirus hominis

| SMILES | EC50 (Hepatitis C virus) [µM] | IC50 [1] [µM] |
| --- | --- | --- |
| O=C(N[C@H]1CCCCC/C=C\[C@@H]2C[C@@]2(C(=O)NS(=O)(=O)C2CC2)NC(=O)[C@@H]2C[C@@H](OC(=O)N3Cc4ccccc4C3)CN2C1=O)OC1CCOCC1 | 0.097 | 0.0022 |
| CC(C)(C)OC(=O)N[C@H]1CCCC/C=C\[C@@H]2C[C@@]2(C(=O)NS(=O)(=O)C2CC2)NC(=O)[C@@H]2C[C@@H](OC(=O)N3Cc4cccc(F)c4C3)CN2C1=O | 0.0766 | 0.0015 |
| CC(C)N(C(C)C)S(=O)(=O)NC(=O)[C@@]12C[C@H]1/C=C\CCCCC[C@H](NC(=O)OC(C)(C)C)C(=O)N1C[C@H](OC(=O)N3Cc4ccccc4C3)C[C@H]1C(=O)N2 | 0.139 | 0.07 |
| CC(C)(C)OC(=O)N[C@H]1CCCCC/C=C\[C@@H]2C[C@@]2(C(=O)NS(=O)(=O)Nc2ccccc2)NC(=O)[C@@H]2C[C@@H](OC(=O)N3Cc4ccccc4C3)CN2C1=O | 0.03 | 0.0022 |
| O=C(N[C@H]1CCCCC/C=C\[C@@H]2C[C@@]2(C(=O)NS(=O)(=O)C2CC2)NC(=O)[C@@H]2C[C@@H](OC(=O)N3Cc4ccccc4C3)CN2C1=O)OC1CCCC1 | 0.004 | 0.001 |
| O=C(N[C@H]1CCCCC/C=C\[C@@H]2C[C@@]2(C(=O)NS(=O)(=O)C2CC2)NC(=O)[C@@H]2C[C@@H](OC(=O)N3Cc4ccccc4C3)CN2C1=O)OCCF | 0.054 | 0.0015 |
| O=C(CCC(F)(F)F)N[C@H]1CCCCC/C=C\[C@@H]2C[C@@]2(C(=O)NS(=O)(=O)C2CC2)NC(=O)[C@@H]2C[C@@H](OC(=O)N3Cc4ccccc4C3)CN2C1=O | 0.048 | 0.0006 |
| O=C(NC1CCCC1)N[C@H]1CCCCC/C=C\[C@@H]2C[C@@]2(C(=O)NS(=O)(=O)C2CC2)NC(=O)[C@@H]2C[C@@H](OC(=O)N3Cc4ccccc4C3)CN2C1=O | 0.026 | 0.0007 |
| CC(C)(C)OC(=O)N[C@H]1CCCCC/C=C\[C@@H]2C[C@@]2(C(=O)NS(=O)(=O)c2cccs2)NC(=O)[C@@H]2C[C@@H](OC(=O)N3Cc4ccccc4C3)CN2C1=O | 0.027 | 0.0025 |
| CC(C)(C)OC(=O)N[C@H]1CCCCC/C=C\[C@@H]2C[C@@]2(C(=O)NS(=O)(=O)c2cc(Cl)sc2Cl)NC(=O)[C@@H]2C[C@@H](OC(=O)N3Cc4ccccc4C3)CN2C1=O | 0.032 | 0.0005 |
| CC(C)(C)OC(=O)N[C@H]1CCCCC/C=C\[C@@H]2C[C@@]2(C(=O)NS(=O)(=O)C2(C)CC2)NC(=O)[C@@H]2C[C@@H](OC(=O)N3Cc4ccccc4C3)CN2C1=O | 0.0031 | 0.0005 |
| COCC1(S(=O)(=O)NC(=O)[C@@]23C[C@H]2/C=C\CCCCC[C@H](NC(=O)OC(C)(C)C)C(=O)N2C[C@H](OC(=O)N4Cc5ccccc5C4)C[C@H]2C(=O)N3)CC1 | 0.013 | 0.0077 |
| CCCC1(S(=O)(=O)NC(=O)[C@@]23C[C@H]2/C=C\CCCCC[C@H](NC(=O)OC(C)(C)C)C(=O)N2C[C@H](OC(=O)N4Cc5ccccc5C4)C[C@H]2C(=O)N3)CC1 | 0.005 | 0.003 |
| CC(C)(C)OC(=O)N[C@H]1CCCCC/C=C\[C@@H]2C[C@@]2(C(=O)NS(=O)(=O)NC2CC2)NC(=O)[C@@H]2C[C@@H](OC(=O)N3Cc4ccccc4C3)CN2C1=O | 0.032 | 0.0042 |
| CC(C)(C)OC(=O)N[C@H]1CCCCC/C=C\[C@@H]2C[C@@]2(C(=O)NS(=O)(=O)N2CCOCC2)NC(=O)[C@@H]2C[C@@H](OC(=O)N3Cc4ccccc4C3)CN2C1=O | 0.052 | 0.0044 |
| CC(C)(C)OC(=O)N[C@H]1CCCCC/C=C\[C@@H]2C[C@@]2(C(=O)NS(=O)(=O)C2CC2)NC(=O)[C@@H]2C[C@@H](OC(=O)N3Cc4cccc(N5CCOCC5)c4C3)CN2C1=O | 0.077 | 0.0018 |
| CC(C)(C)OC(=O)N[C@H]1CCCCC/C=C\[C@@H]2C[C@@]2(C(=O)NS(C)(=O)=O)NC(=O)[C@@H]2C[C@@H](OC(=O)N3Cc4ccccc4C3)CN2C1=O | 0.156 | 0.0066 |
| CC(C)S(=O)(=O)NC(=O)[C@@]12C[C@H]1/C=C\CCCCC[C@H](NC(=O)OC(C)(C)C)C(=O)N1C[C@H](OC(=O)N3Cc4ccccc4C3)C[C@H]1C(=O)N2 | 0.021 | 0.0048 |
| CC(C)(C)OC(=O)N[C@H]1CCCCC/C=C\[C@@H]2C[C@@]2(C(=O)NS(=O)(=O)C(F)(F)F)NC(=O)[C@@H]2C[C@@H](OC(=O)N3Cc4ccccc4C3)CN2C1=O | 0.166 | 0.0048 |
| CC(C)(C)OC(=O)N[C@H]1CCCCC/C=C\[C@@H]2C[C@@]2(C(=O)NS(=O)(=O)c2ccccc2)NC(=O)[C@@H]2C[C@@H](OC(=O)N3Cc4ccccc4C3)CN2C1=O | 0.011 | 0.0035 |
| COc1ccc(S(=O)(=O)NC(=O)[C@@]23C[C@H]2/C=C\CCCCC[C@H](NC(=O)OC(C)(C)C)C(=O)N2C[C@H](OC(=O)N4Cc5ccccc5C4)C[C@H]2C(=O)N3)cc1 | 0.01 | 0.0041 |
| CN(C)c1ccc(S(=O)(=O)NC(=O)[C@@]23C[C@H]2/C=C\CCCCC[C@H](NC(=O)OC(C)(C)C)C(=O)N2C[C@H](OC(=O)N4Cc5ccccc5C4)C[C@H]2C(=O)N3)cc1 | 0.045 | 0.011 |

More lines, in order of falling EC50 (Hepatitis C virus), values ahead:

| EC50 (Hepatitis C virus) [µM] | IC50 [1] [µM] | SMILES |
| --- | --- | --- |
| 0.509 | 0.022 | CC(C)(C)OC(=O)N[C@H]1CCCCC/C=C\[C@@H]2C[C@@]2(C(=O)NS(=O)(=O)N2CCNCC2)NC(=O)[C@@H]2C[C@@H](OC(=O)N3Cc4ccccc4C3)CN2C1=O |
| 0.285 | 0.0007 | CC(C)(C)OC(=O)N[C@H]1CCCCC/C=C\[C@@H]2C[C@@]2(C(=O)NS(=O)(=O)c2cc(F)ccc2F)NC(=O)[C@@H]2C[C@@H](OC(=O)N3Cc4ccccc4C3)CN2C1=O |
| 0.217 | 0.0022 | O=C(N[C@H]1CCCCC/C=C\[C@@H]2C[C@@]2(C(=O)NS(=O)(=O)C2CC2)NC(=O)[C@@H]2C[C@@H](OC(=O)N3Cc4ccccc4C3)CN2C1=O)O[C@H]1CCOC1 |
| 0.194 | 0.037 | CC(C)(C)OC(=O)N[C@H]1CCCCC/C=C\[C@@H]2C[C@@]2(C(=O)NS(=O)(=O)C(C)(C)C)NC(=O)[C@@H]2C[C@@H](OC(=O)N3Cc4ccccc4C3)CN2C1=O |
| 0.184 | 0.011 | COc1ccc(NS(=O)(=O)NC(=O)[C@@]23C[C@H]2/C=C\CCCCC[C@H](NC(=O)OC(C)(C)C)C(=O)N2C[C@H](OC(=O)N4Cc5ccccc5C4)C[C@H]2C(=O)N3)cc1 |
| 0.125 | 0.003 | CC(C)(C)OC(=O)N[C@H]1CCCCC/C=C\[C@@H]2C[C@@]2(C(=O)NS(=O)(=O)c2ccc(C#N)cc2)NC(=O)[C@@H]2C[C@@H](OC(=O)N3Cc4ccccc4C3)CN2C1=O |
| 0.111 | 0.0046 | CC(C)(C)OC(=O)N[C@H]1CCCCC/C=C\[C@@H]2C[C@@]2(C(=O)NS(=O)(=O)c2ccc(Cl)s2)NC(=O)[C@@H]2C[C@@H](OC(=O)N3Cc4ccccc4C3)CN2C1=O |
| 0.107 | 0.0028 | O=C(N[C@H]1CCCCC/C=C\[C@@H]2C[C@@]2(C(=O)NS(=O)(=O)C2CC2)NC(=O)[C@@H]2C[C@@H](OC(=O)N3Cc4ccccc4C3)CN2C1=O)O[C@@H]1CCOC1 |
| 0.097 | 0.0079 | CC(C)(C)OC(=O)N[C@H]1CCCCC/C=C\[C@@H]2C[C@@]2(C(=O)NS(=O)(=O)Nc2ccc(Cl)cc2)NC(=O)[C@@H]2C[C@@H](OC(=O)N3Cc4ccccc4C3)CN2C1=O |
| 0.07 | 0.0098 | CC(C)(C)OC(=O)N[C@H]1CCCCC/C=C\[C@@H]2C[C@@]2(C(=O)NS(=O)(=O)Nc2ccc(C(F)(F)F)cc2)NC(=O)[C@@H]2C[C@@H](OC(=O)N3Cc4ccccc4C3)CN2C1=O |
| 0.058 | 0.003 | CC(C)(C)OC(=O)N[C@H]1CCCCC/C=C\[C@@H]2C[C@@]2(C(=O)NS(=O)(=O)c2ccc(Cl)cc2)NC(=O)[C@@H]2C[C@@H](OC(=O)N3Cc4ccccc4C3)CN2C1=O |
| 0.046 | 0.017 | CN1CCN(S(=O)(=O)NC(=O)[C@@]23C[C@H]2/C=C\CCCCC[C@H](NC(=O)OC(C)(C)C)C(=O)N2C[C@H](OC(=O)N4Cc5ccccc5C4)C[C@H]2C(=O)N3)CC1 |
| 0.045 | 0.0008 | CC(C)(C)OC(=O)N[C@H]1CCCCC/C=C\[C@@H]2C[C@@]2(C(=O)NS(=O)(=O)C2CC2)NC(=O)[C@@H]2C[C@@H](OC(=O)N3Cc4ccc(N5CCOCC5)cc4C3)CN2C1=O |
| 0.041 | 0.002 | CN1CCN(c2ccc3c(c2)CN(C(=O)O[C@@H]2C[C@H]4C(=O)N[C@]5(C(=O)NS(=O)(=O)C6CC6)C[C@H]5/C=C\CCCCC[C@H](NC(=O)OC(C)(C)C)C(=O)N4C2)C3)CC1 |
| 0.038 | 0.0024 | CC(C)(C)NC(=O)N[C@H]1CCCCC/C=C\[C@@H]2C[C@@]2(C(=O)NS(=O)(=O)C2CC2)NC(=O)[C@@H]2C[C@@H](OC(=O)N3Cc4ccccc4C3)CN2C1=O |
| 0.025 | 0.0016 | CC(C)(C)OC(=O)N[C@H]1CCCCC/C=C\[C@@H]2C[C@@]2(C(=O)NS(=O)(=O)C2(Cc3ccccc3)CC2)NC(=O)[C@@H]2C[C@@H](OC(=O)N3Cc4ccccc4C3)CN2C1=O |
| 0.024 | 0.001 | CC(C)(C)OC(=O)N[C@H]1CCCCC/C=C\[C@@H]2C[C@@]2(C(=O)NS(=O)(=O)C2CC2)NC(=O)[C@@H]2C[C@@H](OC(=O)N3Cc4cc(Cl)c(Cl)cc4C3)CN2C1=O |
| 0.0118 | 0.0026 | CC(C)(C)OC(=O)N[C@H]1CCCCC/C=C\[C@@H]2C[C@@]2(C(=O)NS(=O)(=O)N2CCCC2)NC(=O)[C@@H]2C[C@@H](OC(=O)N3Cc4ccccc4C3)CN2C1=O |
| 0.011 | 0.0043 | CC(C)Nc1ccc2c(c1)CN(C(=O)O[C@@H]1C[C@H]3C(=O)N[C@]4(C(=O)NS(=O)(=O)C5CC5)C[C@H]4/C=C\CCCCC[C@H](NC(=O)OC(C)(C)C)C(=O)N3C1)C2 |
| 0.0065 | 0.0024 | CC(C)(C)OC(=O)N[C@H]1CCCCC/C=C\[C@@H]2C[C@@]2(C(=O)NS(=O)(=O)N2CCC2)NC(=O)[C@@H]2C[C@@H](OC(=O)N3Cc4ccccc4C3)CN2C1=O |

Reference: ChEMBL document CHEMBL3120136 (J Med Chem, 2014)
